# Where two headings read alike, the source gives them in different places.
# Tests used:
# [1] = system: wild-type A75/17-CDV strain (A75^neon); assay type: cell-based, canine distemper virus
# virions (OP^neon/nLucP) = assay: Virucidal effect; assay type: cell-based, canine distemper virus; details: 1 h at 4°C, then dilution to noninhibitory concentration, Vero-cSLAM
# Protocol: The virus-compound mixtures were then diluted 10-fold, thereby reaching noninhibitory concentrations. […] Upon inoculation of the diluted mixtures in Vero-cSLAM cells, the viral infectivity was assessed.
# OP^neon/nLucP (MOI of 4) was added in a plate containing or not each compound and incubated for 60 min at 4°C. Afterward, the virus and compound mixture was diluted to a noninhibitory drug concentration and added to a monolayer of Vero-cSLAM cells. After 24 h, luminescence was measured using the Nano-Glo live cell assay system (Promega).
# [2] = Cell viability (cytotoxicity), Vero-cNectin-4; assay type: cell-based; details: monkey, Vero-cNectin-4 cells
# MeV (ICB) = assay: microbe, parasite or virus in culture; assay type: cell-based; details: Measles morbillivirus, NCI-H358 cells
# [3] = Cell viability (cytotoxicity), Vero; assay type: cell-based; details: monkey, Vero cells
# Vero-cSLAM cells [4] = assay: Cell viability (cytotoxicity), Vero-cSLAM
# MeV polymerase complex = assay type: cell-based, measles virus
# [5] = Cell viability (cytotoxicity), NCI-H358; assay type: cell-based; details: human, NCI-H358 cells
# [6] = system: CDV-induced membrane fusion between effector and target cells; assay: Quantitative cell-to-cell fusion assay; assay type: cell-based; details: exclusively at high concentrations
# Excerpt: It is assumed that small molecules at high concentrations may lead to aggregation effects or nonspecific binding.
# Measurement of membrane fusion between effector and target cells in presence of increasing concentration of either compound 3 or 1. […] Download FIG S4, TIF file, 3.0 MB.
# MeV (Edm) = assay: microbe, parasite or virus in culture; assay type: cell-based; details: Measles morbillivirus
# RSV-GFP = assay: microbe, parasite or virus in culture; assay type: cell-based, respiratory syncytial virus; details: HEp-2 cells, plaque reduction
# [7] = Cell viability (cytotoxicity), HEp-2; assay type: cell-based; details: human, HEp-2 cells
# [8] = target: membrane-anchored OP-CDV F-protein (Canine distemper virus, UniProt P12569); assay: Heat shock resistance of prefusion F conformation (flow cytometry); details: heat shock 65°C; compound 3 75 μM, compound 1 10 μM
# membrane-anchored OP-CDV F-protein, sequence (P12569 136-224): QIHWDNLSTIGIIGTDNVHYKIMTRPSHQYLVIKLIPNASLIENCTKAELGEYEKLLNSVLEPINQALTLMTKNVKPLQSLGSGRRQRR
# membrane-anchored OP-CDV F-protein, sequence (P12569 225-662): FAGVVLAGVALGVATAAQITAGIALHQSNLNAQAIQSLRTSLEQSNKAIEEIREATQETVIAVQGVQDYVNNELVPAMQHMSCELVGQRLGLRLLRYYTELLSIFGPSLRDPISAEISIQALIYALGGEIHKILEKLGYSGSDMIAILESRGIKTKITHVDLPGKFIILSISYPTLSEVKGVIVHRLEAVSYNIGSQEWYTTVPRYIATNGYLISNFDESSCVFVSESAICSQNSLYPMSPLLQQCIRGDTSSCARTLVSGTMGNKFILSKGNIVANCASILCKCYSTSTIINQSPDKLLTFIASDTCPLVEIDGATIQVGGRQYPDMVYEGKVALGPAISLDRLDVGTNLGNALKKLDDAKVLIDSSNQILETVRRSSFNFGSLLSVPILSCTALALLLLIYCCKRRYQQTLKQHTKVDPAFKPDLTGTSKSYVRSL
# [9] = Cell viability (cytotoxicity), Bsr-T7; assay type: cell-based; details: hamster, Bsr-T7 cells
# OP^neon/nLucP = assay: Time-of-addition assay; assay type: cell-based, canine distemper virus; details: 10 μM, compounds added after 20 h of infection, readout 48 h
# Protocol: To this end, Vero-cSLAM cells were treated with compound 1 at the time of infection or at distinct time points postinfection. In this set of experiments, two previously characterized compounds (compound 3 and ERDRP-0519 [Fig. 1A]) targeting two distinct stages of the viral life cycle (entry and replication, respectively) were added as controls.
# Vero-cSLAM cells (96-well plate format) were infected with OP^neon/nLucP at an MOI of 0.04, in the presence of compound 3G (final concentration, 30 μM), ERDRP-0519 (final concentration, 10 μM), or ZHAWO9045 (final concentration 10 μM) added at the indicated time points. Control cells were infected in the presence of equal amounts of DMSO. At 48 h postinfection, luminescence was measured using the Nano-Glo live cell assay system (Promega).
# [10] = Cell viability (cytotoxicity), MDCK; assay type: cell-based, Canine; details: dog, MDCK cells
# PIV-5^neon/nLucP = assay: microbe, parasite or virus in culture; assay type: cell-based, parainfluenza virus type 5; details: PIV-5, Vero cells
# Vero-cSLAM cells [11] = details: 42 h incubation, flow cytometry
# [12] = system: wild-type A75/17-CDV (A75^neon/nLucP); assay: microbe, parasite or virus in culture; assay type: cell-based; details: canine distemper virus, Vero-cSLAM cells
# [13] = system: attenuated OP-CDV strain (OP^neon/nLucP); assay: microbe, parasite or virus in culture; assay type: cell-based, canine distemper virus
# CDV polymerase complex = CDV polymerase complex (Canine distemper virus, UniProt P06940+P24658); assay: cell-based; assay type: cell-based; details: for effect on minigenome luciferase activity (RdRp complex activity): compound 1 10 μM, compound 3 50 μM, Bsr-T7 cells, 48 h
# CDV polymerase complex, sequence (P24658 whole entry): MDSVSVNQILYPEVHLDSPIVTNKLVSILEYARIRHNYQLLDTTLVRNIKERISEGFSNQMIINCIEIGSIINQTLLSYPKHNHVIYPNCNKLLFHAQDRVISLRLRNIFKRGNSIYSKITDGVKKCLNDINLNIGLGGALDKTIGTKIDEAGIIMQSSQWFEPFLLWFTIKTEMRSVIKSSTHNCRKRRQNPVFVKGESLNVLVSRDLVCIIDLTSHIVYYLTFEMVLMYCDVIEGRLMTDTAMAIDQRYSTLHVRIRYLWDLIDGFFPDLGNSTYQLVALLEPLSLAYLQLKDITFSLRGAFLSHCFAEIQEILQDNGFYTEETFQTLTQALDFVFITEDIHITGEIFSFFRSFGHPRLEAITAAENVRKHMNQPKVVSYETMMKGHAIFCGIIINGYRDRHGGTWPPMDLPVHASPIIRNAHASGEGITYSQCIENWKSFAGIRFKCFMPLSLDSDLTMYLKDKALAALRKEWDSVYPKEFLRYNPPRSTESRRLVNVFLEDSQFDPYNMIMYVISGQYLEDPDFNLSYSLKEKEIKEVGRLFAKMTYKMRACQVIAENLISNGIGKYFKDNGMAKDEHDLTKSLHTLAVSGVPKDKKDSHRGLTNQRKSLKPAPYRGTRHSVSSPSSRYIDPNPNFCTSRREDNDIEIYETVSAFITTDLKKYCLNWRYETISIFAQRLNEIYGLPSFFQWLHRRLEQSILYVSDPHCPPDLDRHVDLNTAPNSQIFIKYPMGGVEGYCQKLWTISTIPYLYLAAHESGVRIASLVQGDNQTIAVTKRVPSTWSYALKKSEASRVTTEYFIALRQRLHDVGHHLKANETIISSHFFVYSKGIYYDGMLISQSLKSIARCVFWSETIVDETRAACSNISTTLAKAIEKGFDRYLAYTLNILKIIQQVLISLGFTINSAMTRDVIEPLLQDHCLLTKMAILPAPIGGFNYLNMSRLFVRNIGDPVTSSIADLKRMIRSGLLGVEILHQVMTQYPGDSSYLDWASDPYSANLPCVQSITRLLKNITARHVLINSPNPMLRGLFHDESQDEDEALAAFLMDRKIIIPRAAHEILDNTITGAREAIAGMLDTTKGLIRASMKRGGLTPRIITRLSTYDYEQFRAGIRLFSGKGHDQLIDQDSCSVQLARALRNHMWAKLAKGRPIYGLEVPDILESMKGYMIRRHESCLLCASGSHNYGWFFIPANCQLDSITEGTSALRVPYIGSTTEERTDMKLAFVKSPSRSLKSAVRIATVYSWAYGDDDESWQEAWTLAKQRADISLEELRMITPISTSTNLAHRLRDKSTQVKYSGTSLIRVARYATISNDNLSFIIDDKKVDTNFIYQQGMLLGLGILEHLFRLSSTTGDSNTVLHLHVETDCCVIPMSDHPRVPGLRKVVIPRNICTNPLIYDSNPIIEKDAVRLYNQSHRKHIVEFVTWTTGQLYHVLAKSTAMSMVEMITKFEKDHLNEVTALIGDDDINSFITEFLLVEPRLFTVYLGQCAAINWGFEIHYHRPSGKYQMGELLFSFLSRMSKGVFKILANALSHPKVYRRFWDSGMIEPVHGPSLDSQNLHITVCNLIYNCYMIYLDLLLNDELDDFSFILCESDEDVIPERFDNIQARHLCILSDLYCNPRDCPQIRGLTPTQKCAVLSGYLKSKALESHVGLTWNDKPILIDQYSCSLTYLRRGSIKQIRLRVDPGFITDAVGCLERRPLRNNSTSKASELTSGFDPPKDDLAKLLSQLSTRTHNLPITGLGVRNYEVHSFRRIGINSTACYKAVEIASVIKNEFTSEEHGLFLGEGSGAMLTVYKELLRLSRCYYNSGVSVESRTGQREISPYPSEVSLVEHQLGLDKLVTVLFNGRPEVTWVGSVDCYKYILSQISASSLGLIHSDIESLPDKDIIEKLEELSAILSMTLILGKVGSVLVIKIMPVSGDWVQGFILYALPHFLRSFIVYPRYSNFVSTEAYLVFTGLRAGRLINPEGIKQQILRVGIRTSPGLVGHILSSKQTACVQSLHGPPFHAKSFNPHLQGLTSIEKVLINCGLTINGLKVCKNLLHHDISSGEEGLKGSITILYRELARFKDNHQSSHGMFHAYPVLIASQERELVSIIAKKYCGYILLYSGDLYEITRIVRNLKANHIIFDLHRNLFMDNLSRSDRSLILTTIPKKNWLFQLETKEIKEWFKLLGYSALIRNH
# CDV polymerase complex, sequence (P06940 whole entry): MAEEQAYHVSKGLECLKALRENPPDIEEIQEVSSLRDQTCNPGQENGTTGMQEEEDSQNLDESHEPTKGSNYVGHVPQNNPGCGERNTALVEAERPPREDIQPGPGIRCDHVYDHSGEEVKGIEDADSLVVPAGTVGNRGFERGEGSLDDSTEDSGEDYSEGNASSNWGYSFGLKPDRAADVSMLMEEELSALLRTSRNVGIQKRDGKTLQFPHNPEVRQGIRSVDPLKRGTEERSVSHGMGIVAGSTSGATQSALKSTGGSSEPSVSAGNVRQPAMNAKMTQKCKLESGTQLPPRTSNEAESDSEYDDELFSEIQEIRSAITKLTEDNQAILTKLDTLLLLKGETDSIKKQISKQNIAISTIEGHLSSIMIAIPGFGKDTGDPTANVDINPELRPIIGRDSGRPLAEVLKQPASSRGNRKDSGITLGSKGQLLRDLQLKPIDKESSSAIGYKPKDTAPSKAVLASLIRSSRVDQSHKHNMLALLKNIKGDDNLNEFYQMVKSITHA
# in vitro = details: monkey, Vero-cSLAM cells
# VSV = assay type: cell-based, vesicular stomatitis virus; details: Vero cells
# [14] = Cell viability (cytotoxicity), P114; assay type: cell-based, Canine; details: dog, P114 cells
# [15] = Cell viability (cytotoxicity), PGSA745-EFNB2; assay type: cell-based; details: hamster, PGSA745-EFNB2 cells
# rNiV-EGFP = assay: microbe, parasite or virus in culture; assay type: cell-based, Nipah virus; details: Henipavirus nipahense
# [16] = human respiratory syncytial virus, HEp-2, RSV
# [17] = canine distemper virus, 24 h, read-out: IC50 (CDV), Table S5, full list, Vero-cSLAM, CDV OP^neon/nLuc, 24 h postinfection, interval in brackets
# [18] = canine distemper virus, BSR-T7, in Mesocricetus auratus, CDV (OP), Bsr-T7 cells (hamster)
# [19] = canine distemper virus, CDV (OP), Vero-cSLAM cells
# [20] = canine distemper virus, MDCK, in Canis lupus familiaris, CDV (OP), MDCK cells (canine)
# [21] = canine distemper virus, Vero, CDV (OP), Vero cells
# [22] = canine distemper virus, in Canis lupus familiaris, CDV (OP), P114 cells (canine)
# [23] = canine distemper virus, 24 h, Table S3, aromatic heterocycles and N-alkylated aminothiazoles, Vero-cSLAM, CDV OP^neon/nLuc, 24 h postinfection, interval in brackets
SMILES,inhibitory activity after 10-fold dilution of virus-compound mixture (virucidal activity) (virions (OP^neon/nLucP)),CC50 [3] [µM],IC50 (RSV-GFP; [16]) [µM],CC50 [7] [µM],stabilizing effect on prefusion F-trimers [8],CC50 [10] [µM],"IC50 (PIV-5^neon/nLucP; parainfluenza virus 5, Vero) [µM]",concentration at which impact on cell cycle progression (G1 arrest) is statistically significant (Vero-cSLAM cells [11]) [µM],IC50 [12] [µM],"IC50 [13, 17] [µM]","IC50 [13, 18] [µM]","IC50 [13, 19] [µM]","IC50 [13, 20] [µM]","IC50 [13, 21] [µM]","IC50 [13, 22] [µM]",effect on minigenome luciferase activity (RdRp complex activity) (CDV polymerase complex),CC50 (in vitro) [µM],CC50 [14] [µM],"IC50 [13, 23] [µM]",other results
"Cn1nc(C(F)(F)F)cc1C(=O)Nc1ccc(S(=O)(=O)N2CCCC[C@H]2CCN2CCOCC2)cc1 [ERDRP-0519, reference compound]",–,–,–,–,–,–,–,–,–,–,–,–,–,–,–,–,–,–,–,tolerated dose at the end of adaptation ([1]; stepwise adaptation of A75/17-CDV): ≥ 30 µM
CC1(C)Cc2cccc(OCC(=O)Nc3nc4ccccc4s3)c2O1 [compound 1],entirely lost its inhibitory activity,46,~6,110,did not,99,~7,30,~0.7,0.53,~7,~0.45,30,0.4,2.6,sufficient to significantly inhibit the luciferase activity,52,57,–,"CC50 [2]: 43 µM; IC50 (MeV (ICB)): 0.37 µM; CC50 (Vero-cSLAM cells [4]): ~50 µM; effect on MeV polymerase activity (minigenome) (MeV polymerase complex): inhibition of MeV polymerase activity was recorded; CC50 [5]: 50 µM; effect on membrane fusion activity [6]: enhance fusion activity; emergence of viral resistance ([1]; 83-day study, four separate replicates): did not induce any detectable viral resistance; IC50 (MeV (Edm); NCI-H358): 0.52 µM; IC50 (MeV (Edm); Vero): 0.25 µM; IC50 (RSV-GFP; RSV): 5.9 µM; CC50 [9]: 50 µM; time-of-addition inhibition profile (OP^neon/nLucP): acted like ERDRP-0519; IC50 (PIV-5^neon/nLucP): 7.2 µM; IC50 ([13]; CDV (OP), Bsr-T7 cells (hamster)): 7.3 µM; IC50 ([13]; canine distemper virus, 24 h, Vero-cSLAM, CDV OP^neon/nLuc, luciferase 24 h postinfection): 0.52 µM; IC50 ([13]; canine distemper virus, CDV (OP), Vero-cNectin-4 cells): 0.43 µM; IC50 ([13]; canine distemper virus, read-out: IC50 values, summary for MeV and CDV): 0.2 to 0.7 µM; inhibition at 10 µM (CDV polymerase complex; BSR-T7, read-out: inhibition of polymerase activity in the minigenome assay): ~50%; antiviral activity against VSV (VSV): did not display any activity"
CN(C(=O)COc1cccc2c1OC(C)(C)C2)c1nc2c(s1)CCCC2 [compound 2],–,52,0.031,51,–,87,0.015,1,0.0032,–,0.012,0.0026,0.065,0.003,0.019,–,54,65,0.0084,"CC50 [15]: 80 µM; IC50 (rNiV-EGFP): 0.08 µM; IC50 ([13]; Vero-cSLAM, CDV OP^neon/nLuc, luciferase 24 h postinfection): single-digit nanomolar"
"N#Cc1cccc(NC(=O)Cc2ccccc2)c1 [compound 3, reference compound]",still efficiently prevented viral infectivity even after the dilution step,–,–,–,strong stabilizing effect,–,–,–,6,26,–,8,–,–,–,luciferase activity remained similar to that for vehicle,130,–,–,–
C#CCCCN(C(=O)COc1cccc2c1OC(C)(C)C2)c1nc2ccccc2s1 [compound 23],–,–,–,–,–,–,–,–,–,–,–,–,–,–,–,–,–,–,0.27,–
